Results reported in patent US6777564B2, “Anthraquinone compound” (Industrial Technology Research Institute, priority 2001, dated 2004).
Values after ≈ are worked out from the molar mass of the structure shown. Where two headings read alike, the source gives them in different places.

Tests used:
[1] = test system: BC-1: human breast cell; assay: anti-cancer activity test (cytotoxicity), BC 1; type: cell-based; settings: BC 1 cells; for IC50: Homo sapiens, BC1
[2] = test system: HT-1088: human fibrosarcoma cell; assay: anti-cancer activity test (cytotoxicity), HT; type: cell-based; settings: HT cells; for IC50: Homo sapiens
[3] = test system: Lu1: human lung cell; assay: anti-cancer activity test (cytotoxicity), Lu1; type: cell-based; settings: Lu1 cells; for IC50: Homo sapiens
[4] = test system: Mel2: human melanoma cell; assay: anti-cancer activity test (cytotoxicity), Mel2; type: cell-based; settings: Mel2 cells; for IC50: Homo sapiens
[5] = test system: Col2: human colon cell; assay: anti-cancer activity test (cytotoxicity), Col2; type: cell-based; settings: Col2 cells; for IC50: Homo sapiens
[6] = test system: KB: human oral epidormaid Carcinama cell; assay: anti-cancer activity test (cytotoxicity), KB; type: cell-based; settings: KB cells; for IC50: Homo sapiens
Procedure: (§1) The compounds were further screened on 60 human cancer cell lines by Developmental Therapeutics Program Human Tumor Cell Line Screen set up by the National Cancer Institute of the U. S. A. The screening procedures are described briefly hereinafter. Cell suspensions that were diluted according to the particular cell type and the expected target cell density (5000-40,000 cells per well based on cell growth characteristics) were added by pipet (100 μL) into 96-well microtiterplates. Inoculates were allowed a preincubation period of 24 hours at 37° C. for stabilization. Dilutions at twice the intended test concentration were added in 100 μL aliquots to the microtiter plate wells at time zero. Usually, test compounds were evaluated at five 10-fold dilutions. In routine testing, the highest well concentration was 10^−4 M, but for the standard agents the highest well concentration used depended on the agent. Incubations lasted for 48 hours in 5% CO2 atmosphere and 100% humidity. The cells were assayed by using the sulforhodamine B assay. A plate reader was used to read the optical densities, and a microcomputer processed the optical densities into the special concentration parameters. The results of these tests with representative compounds of the present invention appear in Table 1 and 2

[7] = test system: KB-V: drug resisteant KB cell; assay: anti-cancer activity test (cytotoxicity), KB-V; type: cell-based, human; settings: KB-V cells; for IC50: Homo sapiens
[8] = test system: P-388: mouse lymphaid Macrophage cell; assay: anti-cancer activity test (cytotoxicity), P-388; type: cell-based; settings: P-388 cells; for IC50: Mus musculus, P388
[9] = test system: A431: human squamous cell; assay: anti-cancer activity test (cytotoxicity), A431; type: cell-based; settings: A431 cells; for IC50: Homo sapiens, A-431
[10] = test system: LNCaP: human prostate cell; assay: anti-cancer activity test (cytotoxicity), LNCaP; type: cell-based; settings: LNCaP cells; for IC50: Homo sapiens
[11] = test system: ZR-75-1: human breast cell; assay: anti-cancer activity test (cytotoxicity), ZR-75-1; type: cell-based; settings: ZR-75-1 cells; for IC50: Homo sapiens
[12] = test system: U373: human glioma cell; assay: anti-cancer activity test (cytotoxicity), U373; type: cell-based; settings: U373 cells; for IC50: Homo sapiens, U373 MG
[13] = target: T1, HIV-1 RT(p66) (Human immunodeficiency virus type 1 group M subtype B, UniProt P04585); assay: anti-virus activity test, HIV-1 RT(p66) inhibition; type: biochemical; settings: for IC50 / activity inhibition (%) / inhibition at 200 µg/mL: HIV-1 RT(p66); for activity inhibition (%) / inhibition at 200 µg/mL: at 200 μg/ml; for activity inhibition / anti-virus ability (in words): at the concentration of 200 μg/ml
T1 construct: 1-10 at 200 μg/ml to HIV-1 RT(p66)

[14] = test system: human cancer cell lines; assay: anti-cancer activity test, overall over the cell line panel; type: cell-based; settings: summary of Table 1
Procedure: as §1

[15] = read-out: IC50 (μg/ml) (converted)

Compound	IC50 BC 1 [1]	IC50 HT [2]	IC50 Lu1 [3]	activity inhibition / anti-virus ability (in words) [13]	cytotoxic activity to cancer cell lines (in words) [14]	IC50 [1]	IC50 [2]	IC50 [3]	IC50 [4]	IC50 [5]	IC50 [6]	IC50 ([7]; with vinblastine (+VLB))	IC50 ([7]; without vinblastine (−VLB))	IC50 [8]	IC50 [9]	IC50 [10]	IC50 [11]	IC50 [12]	IC50 [13, 15]	inhibition at 200 µg/mL [13]	further results
N=C(N)NCC(=O)Nc1ccc2c(c1)C(=O)c1ccccc1C2=O [Example 4, 2-guanidinoacetamido anthraquinone]	4.9 µg/mL (≈ 15.2 µM)	2.1 µg/mL (≈ 6.52 µM)	14.1 µg/mL (≈ 43.7 µM)	excellent effect on activity inhibition	more effective to most cancer cell lines																IC50 Mel2 [4]: 9.8 µg/mL (≈ 30.4 µM); IC50 Col2 [5]: 12.1 µg/mL (≈ 37.5 µM); IC50 KB [6]: 2.9 µg/mL (≈ 9 µM); IC50 KB-V (+VLB) ([7]; with vinblastine (+VLB)): 7.5 µg/mL (≈ 23.3 µM); IC50 KB-V (−VLB) ([7]; without vinblastine (−VLB)): >20 µg/mL; IC50 P-388 [8]: >5 µg/mL; IC50 A431 [9]: 0.8 µg/mL (≈ 2.48 µM); IC50 LNCaP [10]: 12.5 µg/mL (≈ 38.8 µM); IC50 ZR-75-1 [11]: 3.6 µg/mL (≈ 11.2 µM); IC50 U373 [12]: 0.88 µg/mL (≈ 2.73 µM); IC50 [13]: 18.9 µg/mL; activity inhibition (%) [13]: 99.4%
N=C(N)NCC(=O)Nc1ccc2c(c1NC(=O)CNC(=N)N)C(=O)c1ccccc1C2=O [Example 10, 1,2-di(guanidinoacetamido)anthraquinone]				excellent effect on activity inhibition	more effective to most cancer cell lines	10.2 µg/mL (≈ 23.4 µM)	8.9 µg/mL (≈ 20.4 µM)	> 20 µg/mL	> 20 µg/mL	> 20 µg/mL	3.2 µg/mL (≈ 7.33 µM)	6.3 µg/mL (≈ 14.4 µM)	> 20 µg/mL	> 5 µg/mL	1.7 µg/mL (≈ 3.9 µM)	18 µg/mL (≈ 41.2 µM)	> 20 µg/mL	6.9 µg/mL (≈ 15.8 µM)	69.4 µM	92.3%	
N=C(N)NCC(=O)Nc1cccc2c1C(=O)c1cccc(N)c1C2=O [Example 3, 5-amino-1-guanido acetamidoanthraquinone]				excellent effect on activity inhibition	more effective to most cancer cell lines	3 µg/mL (≈ 8.89 µM)	2.5 µg/mL (≈ 7.41 µM)	9.3 µg/mL (≈ 27.6 µM)	12 µg/mL (≈ 35.6 µM)	4.7 µg/mL (≈ 13.9 µM)	4.2 µg/mL (≈ 12.5 µM)	13.2 µg/mL (≈ 39.1 µM)	> 20 µg/mL	> 5 µg/mL	0.2 µg/mL (≈ 0.593 µM)	9 µg/mL (≈ 26.7 µM)	1.7 µg/mL (≈ 5.04 µM)	1 µg/mL (≈ 2.96 µM)	20.5 µM	99.6%	
2-Benzyl Carbamidoacetamidoanthraquinone [Example 9]	6.4 µg/mL	8.3 µg/mL	9.6 µg/mL	anti-virus ability but not so strong as the others																	IC50 Mel2 [4]: 15.1 µg/mL; IC50 Col2 [5]: 9.6 µg/mL; IC50 KB [6]: 19.2 µg/mL; IC50 KB-V (+VLB) ([7]; with vinblastine (+VLB)): 1.4 µg/mL; IC50 KB-V (−VLB) ([7]; without vinblastine (−VLB)): >20 µg/mL; IC50 P-388 [8]: >5 µg/mL; IC50 A431 [9]: 1.7 µg/mL; IC50 LNCaP [10]: >20 µg/mL; IC50 ZR-75-1 [11]: 6.4 µg/mL; IC50 U373 [12]: 4.7 µg/mL; activity inhibition (%) [13]: 53.4%
1-benzyl carbamidoacetamidoanthraquinone [Example 1]	>20 µg/mL	13.9 µg/mL	>20 µg/mL	anti-virus ability but not so strong as the others																	IC50 Mel2 [4]: >20 µg/mL; IC50 Col2 [5]: >20 µg/mL; IC50 KB [6]: >20 µg/mL; IC50 KB-V (+VLB) ([7]; with vinblastine (+VLB)): 3.8 µg/mL; IC50 KB-V (−VLB) ([7]; without vinblastine (−VLB)): >20 µg/mL; IC50 P-388 [8]: >5 µg/mL; IC50 A431 [9]: >20 µg/mL; IC50 LNCaP [10]: 14.7 µg/mL; IC50 ZR-75-1 [11]: >20 µg/mL; IC50 U373 [12]: >20 µg/mL; activity inhibition (%) [13]: 47.0%
N=C(N)NCC(=O)Nc1ccc2c(c1)C(=O)c1ccc(N)cc1C2=O [Example 7, 6-amino-2-guanidoacetamidoanthraquinone]				excellent effect on activity inhibition	more effective to most cancer cell lines	3.6 µg/mL (≈ 10.7 µM)	1.6 µg/mL (≈ 4.74 µM)	> 20 µg/mL	6.8 µg/mL (≈ 20.2 µM)	3.2 µg/mL (≈ 9.49 µM)	1.2 µg/mL (≈ 3.56 µM)	> 20 µg/mL	> 20 µg/mL	1.1 µg/mL (≈ 3.26 µM)	0.6 µg/mL (≈ 1.78 µM)	6.3 µg/mL (≈ 18.7 µM)	3.3 µg/mL (≈ 9.78 µM)	0.4 µg/mL (≈ 1.19 µM)	37.1 µM	99.7%	
N=C(N)NCC(=O)Nc1ccc2c(c1N)C(=O)c1ccccc1C2=O [Example 6, 1-amino-2-guanido acetamidoanthraquinone]				excellent effect on activity inhibition	more effective to most cancer cell lines	7.8 µg/mL (≈ 23.1 µM)	4.5 µg/mL (≈ 13.3 µM)	> 20 µg/mL	> 20 µg/mL	> 20 µg/mL	5.9 µg/mL (≈ 17.5 µM)	7.9 µg/mL (≈ 23.4 µM)	> 20 µg/mL	> 5 µg/mL	0.9 µg/mL (≈ 2.67 µM)	> 20 µg/mL	6.9 µg/mL (≈ 20.5 µM)	2 µg/mL (≈ 5.93 µM)	119 µM	99.7%	
N=C(N)NCC(=O)Nc1ccc(N)c2c1C(=O)c1ccccc1C2=O [Example 2, 4-amino-1-guanido acetamidoanthraquinone]				excellent effect on activity inhibition	more effective to most cancer cell lines	1.6 µg/mL (≈ 4.74 µM)	2 µg/mL (≈ 5.93 µM)	3.1 µg/mL (≈ 9.19 µM)	4.4 µg/mL (≈ 13 µM)	4.2 µg/mL (≈ 12.5 µM)	1.2 µg/mL (≈ 3.56 µM)	16 µg/mL (≈ 47.4 µM)	> 20 µg/mL	> 5 µg/mL	0.4 µg/mL (≈ 1.19 µM)	4.1 µg/mL (≈ 12.2 µM)	3.4 µg/mL (≈ 10.1 µM)	0.6 µg/mL (≈ 1.78 µM)	25.8 µM	99.5%	
N=C(N)NCC(=O)Nc1ccc2c(c1)C(=O)c1ccc(NC(=O)CNC(=N)N)cc1C2=O [Example 8, 2,6-di(guanidinoacetamido)anthraquinone]					more effective to most cancer cell lines	5 µg/mL (≈ 11.5 µM)	6 µg/mL (≈ 13.7 µM)	12.2 µg/mL (≈ 28 µM)	12.7 µg/mL (≈ 29.1 µM)	3.3 µg/mL (≈ 7.56 µM)	1.4 µg/mL (≈ 3.21 µM)	> 20 µg/mL	> 20 µg/mL	> 5 µg/mL	5.8 µg/mL (≈ 13.3 µM)	7.2 µg/mL (≈ 16.5 µM)	7 µg/mL (≈ 16 µM)	8.6 µg/mL (≈ 19.7 µM)		29.3%	
4-amino-1-benzyl Carbamidoacetamidoanthraquinone [Example 5]	>20 µg/mL	>20 µg/mL	>20 µg/mL	anti-virus ability but not so strong as the others																	IC50 Mel2 [4]: >20 µg/mL; IC50 Col2 [5]: >20 µg/mL; IC50 KB [6]: >20 µg/mL; IC50 KB-V (+VLB) ([7]; with vinblastine (+VLB)): 2.9 µg/mL; IC50 KB-V (−VLB) ([7]; without vinblastine (−VLB)): >20 µg/mL; IC50 P-388 [8]: >5 µg/mL; IC50 A431 [9]: >20 µg/mL; IC50 LNCaP [10]: >20 µg/mL; IC50 ZR-75-1 [11]: >20 µg/mL; IC50 U373 [12]: >20 µg/mL; activity inhibition (%) [13]: 23.0%
